Paper PMC6581027, “In vitro Radiopharmaceutical Evidence for MCHR1 Binding Sites in Murine Brown Adipocytes” (Frontiers in Endocrinology, 2019)
Read-outs that look alike come from different tables or passages of the source.

What was measured:
murine brown adipocytes [1] = experiment: [18F]FDG uptake in brown adipocytes (brown adipocyte activation); type: cell-based; conditions: 30 min pre-treatment, baseline (vehicle) = 100% uptake/well, mean ± SD
Description: (§1) Cells were maintained under standard conditions in a humidified incubator (37°C, 5% CO2). CHO-K1 cells expressing the human adrenergic beta-3 receptor (CHO-K1-ADRB3) were purchased from PerkinElmer (ValiScreen® ES-035-C). CHO-K1-ADRB3 were grown using Ham's F12 (Nut Mix) supplemented with 10% FCS, 2 mM L-glutamine, penicillin (100 Units/mL), streptomycin (100 μg/mL), and 0.4 mg/mL geneticin. CHO-K1 cells were a generous gift from Prof. Karl Norbert Klotz (University Würzburg, Germany) and cultured likewise without selection antibiotics. Immortalized murine brown pre-adipocytes were provided by the Department of Medicine III (Medical University of Vienna, Austria) and cultured in high glucose Dulbecco's Modified Eagle's Medium (DMEM) supplemented with 10% FBS, 1 mM pyruvate, penicillin (100 Units/mL) and streptomycin (100 μg/mL). When cells were confluent, differentiation to brown adipocytes was induced for 48 h using 1.72 μM insulin (human recombinant), 1 nM thyroid hormone (T3), 0.5 mM 3-isobutyl-1-methylxanthine (IBMX), 125 nM indomethacin, and 1 μM dexamethasone. After induction, the medium was changed to post-differentiation medium (high glucose DMEM) supplemented with 10% FBS, 1 mM pyruvate, penicillin (100 Units/mL), streptomycin (100 μg/mL), 1.72 μM insulin, and 1 nM T3. The post-differentiation medium was replenished every second day. Brown adipocytes were used for experimental investigations 4–6 days after induction. Oil Red O staining was performed according to the manufacturer's instructions. Counterstaining was performed using haematoxylin.
Brown pre-adipocytes were seeded, grown to confluence and differentiated in 6-well plates as described in section General. Cell starving was performed for 1 h using unsupplemented, glucose-free DMEM. […] [^18F]FDG uptake was performed for 50 min at 37°C (humidified atmosphere, 5% CO2). Supernatant was taken off, cells were washed with ice-cold PBS and finally trypsinized. Radioactive cell fractions were gamma counted (2480 Wizard^2, PerkinElmer) and normalized to percentage uptake per well. [^18F]FDG uptake under baseline conditions refers to 100% uptake. Three independent experiments were performed in triplicates. Statistical analysis was performed using an unpaired, two-tailed t-test.

murine brown adipocytes [2] = experiment: Specific [11C]SNAP-7941 binding to brown adipocytes (competition); type: cell-based; conditions: 2 μM unlabeled compound; for [11C]SNAP-7941 binding per well referring to baseline: 30 min pre-treatment, baseline (vehicle) = 100% binding/well, mean ± SD
Description: as §1
Brown pre-adipocytes were seeded, grown to confluence and differentiated in six-well plates as described above. Thirty minutes prior to the experiment, maintenance medium (cf. 2.1) was discarded and replaced with respective serum- and additive-free medium to avoid plasma protein binding of the PET-tracer. Cell starving, as performed for [^18F]FDG uptake measurements, was not indicated for [^11C]SNAP-7941 binding experiments. […] Baseline was determined using DMSO or ethanol, respectively. Sample processing, data analysis and statistical testing were performed as described in [^18F]FDG Uptake Experiments: Effects of MCHR1 Ligands on Brown Adipocyte Activation.

MCHR1 = biological target: MCHR1; parameters: method as in PMID 28808288; conditions: previously described; ref [28]; cited from earlier work
[3] = biological target: T1, human adrenergic beta-3 receptor (ADRB3) (Homo sapiens, UniProt P13945); experiment: Competitive binding assay, CHO-K1-ADRB3 cell membranes, [3H]CGP-12177 radioligand; conditions: for Ki: CHO-K1-ADRB3 membranes, 5 nM [3H]CGP-12177, 90 min 27°C, read-out: Ki ADRB3 experimental; for ADRB3/ MCHR1 (ratio of Ki values): selectivity toward MCHR1, ADRB3 Ki measured, MCHR1 Ki from ref [28]
T1 construct: host or cells: CHO-K1
T1 sequence (P13945 whole entry): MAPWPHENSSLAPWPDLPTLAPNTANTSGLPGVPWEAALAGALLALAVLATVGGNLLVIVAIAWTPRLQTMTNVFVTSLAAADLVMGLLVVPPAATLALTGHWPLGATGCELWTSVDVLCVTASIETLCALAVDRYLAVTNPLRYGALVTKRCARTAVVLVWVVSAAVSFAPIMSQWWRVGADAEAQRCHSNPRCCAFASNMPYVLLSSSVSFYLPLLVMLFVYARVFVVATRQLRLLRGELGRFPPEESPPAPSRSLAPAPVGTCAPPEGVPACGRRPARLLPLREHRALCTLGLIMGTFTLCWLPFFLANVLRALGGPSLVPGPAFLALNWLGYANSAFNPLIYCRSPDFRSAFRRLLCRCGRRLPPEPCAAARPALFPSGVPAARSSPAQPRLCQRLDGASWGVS
Description: CHO-K1-ADRB3 cell membranes were prepared from 175 cm^2 cell culture flasks, when 80% confluence was reached. All procedures were performed at 4°C. Cells were scraped off using ice-cold lysis buffer (10 mM Tris-HCl pH 7.4, 1 mM EDTA) and protease inhibitor cocktail was added according to the manufacturer's instructions (Sigma-Aldrich, St. Louis, USA). The cell suspension was homogenized using cannulas (29 G) and centrifuged for 10 min at 1,000 × g. The obtained supernatant was centrifuged for 30 min at 100,000 × g. Subsequently, the pellet was suspended using 50 mM Tris-HCl pH 7.4 and aliquoted. Aliquots were shock-frozen in liquid nitrogen and stored at −80°C until usage. Protein concentration of the cell membrane suspension was determined using BCA Protein Assay Kit (Thermo Scientific, Waltham, USA).
All stated concentrations refer to the final assay volume of 500 μL buffer (25 mM HEPES pH 7.4, 1 mM EDTA, 0.5% BSA). Competitive binding assays were performed using 13.6 ng/μL ADRB3 expressing CHO-K1 cell membrane suspension (cf. 2.3) and 5 nM [^3H]CGP-12177 as the respective radioligand. […] Nonspecific binding was determined using 10 μM carazolol. Total binding was determined in the presence of 1% respective solvent. Incubation was performed for 90 min at 27°C. Filtration through GF/B filters (Whatman®, presoaked in 0.05% PEI) was performed using a cell harvester (Brandel®, Gaithersburg, MD, USA) and was followed by two washing steps using ice-cold wash buffer (10 mM HEPES, 500 mM NaCl, pH 7.4). Filter pieces containing receptor-bound radioactivity were shaken for 30 min in scintillation cocktail (Ultima Gold™, PerkinElmer, Waltham, USA) before liquid scintillation counting (Hidex 300 SL, Turku, Finland). IC50 fitted binding curves were generated using the GraphPad Software 5.0 (La Jolla, CA, USA) using nonlinear regression.

CHO-K1-ADRB3 cells = biological target: T2, CHO-K1-ADRB3 cells (Homo sapiens, UniProt P13945); experiment: Real-time kinetic displacement of [125I]Iodocyanopindolol binding (LigandTracer); type: cell-based; conditions: 20 μM non-radioactive compound applied after 60 min association phase
T2 construct: host or cells: CHO-K1
T2 sequence (P13945 whole entry): as above
Description: 2.5 × 10^5 cells (CHO-K1, CHO-K1-ADRB3) per cell culture dish were seeded 2 days prior to the experiment and incubated in an inclined position to allow an adherent cell pole at one side of the cell dish. Cell dish preparation was performed as previously described ([32], [33]). Real-time kinetic radioligand binding measurements were performed using a dedicated device for low energy gamma radiation (LigandTracer® Gray Technology, Ridgeview, Sweden). The assay protocol compromised consecutive radioactivity measurements of the target region (cell pole) and of the opposite pole of the petri dish, where no cells were seeded (background signal). Radioactivity was counted in each region for 3 s with a delay of 2 s over the time course of the experiment. Raw counts per second (cps) of the target region were corrected for background signal and for radioactive decay. Displacement of [^125I]Iodocyanopindolol binding was conducted after 1 h association phase of radioligand binding by consecutively applying rising concentrations of SNAP-7941 and FE@SNAP. The same volume of ethanol was added as vehicle control. Experiments were performed on at least three different days.

ADRB3 [4] = biological target: ADRB3; parameters: method as in PMID 20590599; conditions: assumed for Ki calculation; ref [31]; cited from earlier work
ADRB3 [5] = biological target: ADRB3; parameters: method as in PMID 14730417, PMID 8719421, PMID 7903415, PMID 2570461; conditions: literature values for standard compounds; ref [43], [45]–[47]; read-out: Ki ADRB3 reference; cited from earlier work

Row | SMILES | Ki ([3]; n = 3 in triplicates) [nM] | ADRB3/ MCHR1 (ratio of Ki values) [3] | Effect on [125I]Iodocyanopindolol binding to CHO-K1-ADRB3 cells (CHO-K1-ADRB3 cells) | [18F]FDG uptake referring to baseline (murine brown adipocytes [1]; 2 μM compound) | [11C]SNAP-7941 binding per well referring to baseline (murine brown adipocytes [2]) [%] | [18F]FDG uptake referring to baseline (murine brown adipocytes [1]; 20 μM compound) [%] | Ki (MCHR1) [nM] | further results
1 | CC(C)NC[C@H](O)COc1cccc2ccccc12.Cl [(S)-propranolol, (S)-propranolol hydrochloride] |  |  |  | did not alter | 95.8 ± 8.6 |  |  | [11C]SNAP-7941 binding per well referring to baseline (murine brown adipocytes [2]; listed as propranolol): did not alter
2 | C[C@H](Cc1ccc2c(c1)OC(C(=O)[O-])(C(=O)[O-])O2)NC[C@H](O)c1cccc(Cl)c1.[Na+].[Na+] [CL 316,243, reference compound] |  |  |  | 137.7 ± 12.2% | 91.1 ± 3.6 |  |  | 
3 | CC(C)(C)NCC(O)COc1cccc2[nH]c(=O)[nH]c12 (stereo not drawn) [[^3H]CGP-12177, 5,7-[^3H](-)CGP-12177] |  |  |  |  |  |  |  | Kd (ADRB3 [4]): 109 nM
4 | CC(C)NCC(O)COc1cccc2[nH]c3ccccc3c12 (centres unmarked) [carazolol, reference compound] |  |  |  |  |  |  |  | Ki (ADRB3 [5]): 2 nM; Ki ([3]; three independent experiments in triplicates): 2 ± 0.3 nM

Now from value to compound, other results behind:

Row | Ki ([3]; n = 3 in triplicates) [nM] | ADRB3/ MCHR1 (ratio of Ki values) [3] | Effect on [125I]Iodocyanopindolol binding to CHO-K1-ADRB3 cells (CHO-K1-ADRB3 cells) | SMILES | [18F]FDG uptake referring to baseline (murine brown adipocytes [1]; 2 μM compound) | [11C]SNAP-7941 binding per well referring to baseline (murine brown adipocytes [2]) [%] | [18F]FDG uptake referring to baseline (murine brown adipocytes [1]; 20 μM compound) [%] | Ki (MCHR1) [nM] | further results
5 | 65100 ± 2900 | ~6,523 | did not affect binding | COCC1=C(C(=O)OCCF)C(c2ccc(F)c(F)c2)N(C(=O)NCCCN2CCC(c3cccc(NC(C)=O)c3)CC2)C(=O)N1 (centres unmarked) [FE@SNAP] |  |  | 73.03 ± 13.6 | 9.98 ± 1.12 | 
6 | 14500 ± 300 | ~3,708 | did not affect binding | COCC1=C(C(=O)OC)[C@H](c2ccc(F)c(F)c2)N(C(=O)NCCCN2CCC(c3cccc(NC(C)=O)c3)CC2)C(=O)N1 [SNAP-7941] |  | 77.1 ± 5.0 | 63.24 ± 2.6 | 3.91 ± 0.74 | Reduction of [11C]SNAP-7941 binding (murine brown adipocytes [2]; versus baseline): 22.9 ± 5.0%
